# Values of other authors, collected in patent US20120258171A1, “COMPOSITION COMPRISING FESOTERODINE AND FIBER” (ratiopharm GmbH, priority 2009, published 2012).
# Tests used:
# [1] = system: overactive bladder; details: both Phase III studies, versus placebo
# [2] = general statement on the active agent
structure (smiles),measurement,setting,value
"CC(C)C(=O)Oc1ccc(CO)cc1[C@H](CCN(C(C)C)C(C)C)c1ccccc1 [Fesoterodine, 2-[(1R)-3-(di-isopropylamine)-1-phenylpropyl]-4-(hydroxymethyl)phenyl-isobutyrate]","improvement of clinically relevant end points (urge incontinence events/24 h, frequency of micturition, mean micturition volume)",[1],statistically significant improvements over a placebo
same,stability against hydrolysis,[2],not particularly stable against hydrolysis
